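Assay format: 96-well plates, 48-hour exposure. GI50 is the concentration that inhibits growth by half.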 Calls of active or inactive are those of the source. Rule as the data show it: active = GI50 up to about 1.1 µM and inactive = higher.
Assays:
Assay in all cases: NCI-60 cell line screen, 48 h
KM12 = test system: KM12
OVCAR-5 = test system: OVCAR-5
RXF 393 = test system: RXF 393
SW-620 = test system: SW-620
EKVX = test system: EKVX
CCRF-CEM = test system: CCRF-CEM
NCI/ADR-RES = test system: NCI/ADR-RES
SK-MEL-28 = test system: SK-MEL-28
HT-29 = test system: HT-29
IGROV-1 = test system: IGROV-1
NCI-H23 = test system: NCI-H23
T47D = test system: T47D
ACHN = test system: ACHN
Malme-3M = test system: Malme-3M
M14 = test system: M14
BT-549 = test system: BT-549
U-251 = test system: U-251
HCT-116 = test system: HCT-116
SR = test system: SR
SF-539 = test system: SF-539

Structure (SMILES)	GI50 (KM12)	GI50 (OVCAR-5)	GI50 (RXF 393)	GI50 (SW-620)	GI50 (EKVX)	GI50 (CCRF-CEM)	GI50 (NCI/ADR-RES)	GI50 (SK-MEL-28)	GI50 (HT-29)	GI50 (IGROV-1)	GI50 (NCI-H23)	GI50 (T47D)	GI50 (ACHN)	GI50 (Malme-3M)	GI50 (M14)	GI50 (BT-549)	GI50 (U-251)	GI50 (HCT-116)	GI50 (SR)	GI50 (SF-539)
O=C(O)c1cc(O)nc(S)n1	> 100 µM (inactive)	> 100 µM (inactive)	> 100 µM (inactive)	> 100 µM (inactive)	> 100 µM (inactive)	> 100 µM (inactive)	> 100 µM (inactive)	> 100 µM (inactive)	> 100 µM (inactive)	> 100 µM (inactive)	> 100 µM (inactive)	> 100 µM (inactive)	> 100 µM (inactive)	> 100 µM (inactive)	> 100 µM (inactive)	> 100 µM (inactive)	> 100 µM (inactive)	> 100 µM (inactive)	–	–
NC(=S)Nc1ccc(S(=O)(=O)Nc2ccc(S(N)(=O)=O)cc2)cc1	> 100 µM (inactive)	> 100 µM (inactive)	> 100 µM (inactive)	> 100 µM (inactive)	> 100 µM (inactive)	> 100 µM (inactive)	> 100 µM (inactive)	> 100 µM (inactive)	> 100 µM (inactive)	> 100 µM (inactive)	> 100 µM (inactive)	> 100 µM (inactive)	> 100 µM (inactive)	> 100 µM (inactive)	> 100 µM (inactive)	> 100 µM (inactive)	> 100 µM (inactive)	> 100 µM (inactive)	–	–
Nc1ccc(Oc2ccc(C3(c4ccc(Oc5ccc(N)cc5)cc4)C4CC5CC(C4)CC3C5)cc2)cc1	3.77 µM (inactive)	19.9 µM (inactive)	6.3 µM (inactive)	4.26 µM (inactive)	9.53 µM (inactive)	3.03 µM (inactive)	15.8 µM (inactive)	16.5 µM (inactive)	0.489 µM (active)	12.8 µM (inactive)	13.8 µM (inactive)	–	7.8 µM (inactive)	23.7 µM (inactive)	3.2 µM (inactive)	11.6 µM (inactive)	0.231 µM (active)	0.782 µM (active)	3.42 µM (inactive)	10.9 µM (inactive)
CCCCCC/C=C/C#CCCCCCCCC(=O)O	> 100 µM (inactive)	> 100 µM (inactive)	–	> 100 µM (inactive)	> 100 µM (inactive)	82.4 µM (inactive)	> 100 µM (inactive)	> 100 µM (inactive)	> 100 µM (inactive)	> 100 µM (inactive)	> 100 µM (inactive)	> 100 µM (inactive)	> 100 µM (inactive)	> 100 µM (inactive)	> 100 µM (inactive)	> 100 µM (inactive)	> 100 µM (inactive)	> 100 µM (inactive)	–	> 100 µM (inactive)
CCCC(O)[C@@]1(CC)CC(C)C(O)(C2(C)C[C@H](C)[C@@H](C(CC)C(=O)C(C)[C@@H](O)[C@H](C)C3OC(O)(C(CC)C(=O)O)[C@@H](C)C(O)C3CC)O2)O1 (some centres not stated)	0.451 µM (active)	1.51 µM (inactive)	0.0863 µM (active)	0.776 µM (active)	0.395 µM (active)	0.0324 µM (active)	0.0792 µM (active)	0.49 µM (active)	0.557 µM (active)	1.24 µM (inactive)	0.129 µM (active)	–	0.521 µM (active)	0.0982 µM (active)	0.557 µM (active)	0.0512 µM (active)	0.184 µM (active)	0.187 µM (active)	< 0.01 µM (active)	0.056 µM (active)
CN(/N=C/c1cccc2cccnc12)c1ccc(Cl)cc1[N+](=O)[O-]	96.8 µM (inactive)	> 100 µM (inactive)	> 100 µM (inactive)	> 100 µM (inactive)	> 100 µM (inactive)	> 100 µM (inactive)	87.1 µM (inactive)	–	59.4 µM (inactive)	> 100 µM (inactive)	> 100 µM (inactive)	–	> 100 µM (inactive)	> 100 µM (inactive)	> 100 µM (inactive)	> 100 µM (inactive)	> 100 µM (inactive)	> 100 µM (inactive)	> 100 µM (inactive)	> 100 µM (inactive)
COc1cc([C@@H]2c3cc4c(cc3C[C@@H]3COC(=O)C32)OCO4)cc(OC)c1O (some centres not stated)	0.0277 µM (active)	–	0.0165 µM (active)	0.0306 µM (active)	0.0284 µM (active)	0.0228 µM (active)	0.0187 µM (active)	–	0.034 µM (active)	0.0254 µM (active)	0.21 µM (active)	–	0.03 µM (active)	0.0121 µM (active)	0.0344 µM (active)	0.038 µM (active)	0.0432 µM (active)	0.0297 µM (active)	0.011 µM (active)	0.0188 µM (active)
CSc1nc2c(c(=O)n1C)N=C(c1ccccc1)[C@H](C(CC(=O)c1ccccc1)c1ccccc1)C(c1ccccc1)N2 (some centres not stated)	14.7 µM (inactive)	> 100 µM (inactive)	65.6 µM (inactive)	26.1 µM (inactive)	15.8 µM (inactive)	44.8 µM (inactive)	76.6 µM (inactive)	> 100 µM (inactive)	> 100 µM (inactive)	> 100 µM (inactive)	> 100 µM (inactive)	–	> 100 µM (inactive)	> 100 µM (inactive)	> 100 µM (inactive)	> 100 µM (inactive)	> 100 µM (inactive)	32 µM (inactive)	> 100 µM (inactive)	> 100 µM (inactive)
O=C(/C=C/c1ccc2c(c1)OCO2)c1ccc(O)cc1	–	17.5 µM (inactive)	15.6 µM (inactive)	12.1 µM (inactive)	16.6 µM (inactive)	8.07 µM (inactive)	1.76 µM (inactive)	19.3 µM (inactive)	15.4 µM (inactive)	15.1 µM (inactive)	15.5 µM (inactive)	–	20.2 µM (inactive)	15.3 µM (inactive)	18.1 µM (inactive)	14.2 µM (inactive)	13.8 µM (inactive)	13.4 µM (inactive)	1.17 µM (inactive)	17.4 µM (inactive)
CCc1cccc(CC)c1NC(=O)C(C#N)C1=C(Cl)C(=O)c2ccccc2C1=O (configuration not stated)	18.9 µM (inactive)	18.8 µM (inactive)	16.3 µM (inactive)	9.33 µM (inactive)	21.1 µM (inactive)	1.33 µM (inactive)	–	20.6 µM (inactive)	19.9 µM (inactive)	17.8 µM (inactive)	13 µM (inactive)	3.79 µM (inactive)	16.4 µM (inactive)	9.23 µM (inactive)	16.8 µM (inactive)	12.4 µM (inactive)	15.3 µM (inactive)	15.9 µM (inactive)	1.2 µM (inactive)	11.3 µM (inactive)
CC(C)[Si](Oc1ccc(CC2N(C(=O)c3ccc([N+](=O)[O-])cc3)C(CCc3ccccc3)CC2(C)C=O)cc1)(C(C)C)C(C)C (configuration not stated)	–	> 100 µM (inactive)	5.85 µM (inactive)	–	82.6 µM (inactive)	> 100 µM (inactive)	–	> 100 µM (inactive)	–	7.38 µM (inactive)	27.8 µM (inactive)	> 100 µM (inactive)	> 100 µM (inactive)	> 100 µM (inactive)	–	21.3 µM (inactive)	20.5 µM (inactive)	–	2.58 µM (inactive)	6.22 µM (inactive)
COC(=O)Cc1cccc2c(=O)c(S(=O)(=O)NC(=O)Nc3ccc(Cl)cc3)c(-c3ccccc3)oc12	34.4 µM (inactive)	> 100 µM (inactive)	–	13.9 µM (inactive)	> 100 µM (inactive)	15.9 µM (inactive)	> 100 µM (inactive)	34.6 µM (inactive)	74.5 µM (inactive)	38.5 µM (inactive)	57 µM (inactive)	–	12.2 µM (inactive)	–	> 100 µM (inactive)	55.6 µM (inactive)	50.6 µM (inactive)	33.3 µM (inactive)	36.9 µM (inactive)	58.5 µM (inactive)
C=C1[C@@H]([C@@]2(C)C=CC(=O)C(C)(C)[C@@H]2CC(=O)OC)CC[C@@]2(C)[C@H](c3ccoc3)OC(=O)[C@H]3O[C@]132 [ANDIROBIN]	> 100 µM (inactive)	> 100 µM (inactive)	–	> 100 µM (inactive)	> 100 µM (inactive)	> 100 µM (inactive)	> 100 µM (inactive)	> 100 µM (inactive)	> 100 µM (inactive)	> 100 µM (inactive)	> 100 µM (inactive)	94.4 µM (inactive)	> 100 µM (inactive)	> 100 µM (inactive)	> 100 µM (inactive)	> 100 µM (inactive)	> 100 µM (inactive)	> 100 µM (inactive)	–	> 100 µM (inactive)
COc1ccc(/N=C2\S/C(=N\C(=N\c3ccccc3)SCc3ccccc3)N(c3ccccc3)\C2=N/c2ccc(OC)cc2)cc1	> 100 µM (inactive)	–	> 100 µM (inactive)	> 100 µM (inactive)	> 100 µM (inactive)	> 100 µM (inactive)	–	62.4 µM (inactive)	> 100 µM (inactive)	> 100 µM (inactive)	> 100 µM (inactive)	> 100 µM (inactive)	–	> 100 µM (inactive)	72.1 µM (inactive)	> 100 µM (inactive)	–	> 100 µM (inactive)	> 100 µM (inactive)	–
Cc1ccc(C2c3c(n(C)c(=O)n(C)c3=O)OC(N(C)C)(N(C)C)C2(F)F)cc1 (configuration not stated)	> 100 µM (inactive)	> 100 µM (inactive)	> 100 µM (inactive)	> 100 µM (inactive)	> 100 µM (inactive)	> 100 µM (inactive)	> 100 µM (inactive)	> 100 µM (inactive)	–	–	> 100 µM (inactive)	> 100 µM (inactive)	> 100 µM (inactive)	–	> 100 µM (inactive)	> 100 µM (inactive)	> 100 µM (inactive)	> 100 µM (inactive)	–	–
